± gives the expanded uncertainty stated by the source.
Experiments:
[1] = refractive index (Na D-line) (dimensionless); conditions: 293.1 K; 101.33 kPa; Liquid; Standard Abbe refractometry
[2] = 298.1 K; 101.33 kPa; Liquid; Vibrating tube method

refractive index [1] | mass density [2] [kg/m3] | SMILES
1.422 ± 0.0007 | 1025.9 ± 0.1 | C1COCCO1 [1,4-dioxane]
1.4416 ± 0.0007 | 766.8 ± 0.2 | C=CC(C)CCC=C(C)C (centres undefined) [3,7-dimethyl-1,6-octadiene]

Reference: the NIST ThermoML archive (doi:10.1016/j.fluid.2009.03.017)
